Our source for the RP-LC retention time values is the METLIN SMRT retention time set (Domingo-Almenara et al. 2019).

The series can be described thus: gradient 5% acetonitrile 3 min, to 50% in 2 min, to 85% in 15 min, held 3 min, 100 µL/min. The settings on record: column: Zorbax Extend-C18 2.1 x 50 mm; eluents: water / acetonitrile, 0.1% formic acid. The method, boiled down: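 Over 3 months, pure standards in mixtures of ~100 molecules were run by HPLC coupled to a quadrupole time-of-flight mass spectrometer in positive and negative ionization mode. The column was a Zorbax Extend-C18 (2.1 × 50 mm, 1.8 μm) at 100 μL/min, eluted with water and acetonitrile each holding 0.1% formic acid, with 40 μL dead and 900 μL dwell volumes. Retention time was determined from adduct peaks chosen by software and checked manually.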
For the compound `CC(=O)Nc1ccc(C)cc1S(=O)(=O)N1CCC2(CC1)Nc1ccc(C)c(C)c1-n1cccc12`, the RP-LC retention time was 1070 s.

Compound `O=S(=O)(NCC1(O)CCOCC1)c1ccc2c(c1)CCCC2` came in with an RP-LC retention time of 688 s.

In turn, `COc1ccc(Cl)cc1C(=O)NC1CCN(c2cc(-c3cccs3)[nH]n2)CC1` showed an RP-LC retention time of 865 s.

The compound `CN1C(=O)Cc2cc(C(=O)N3CCCCC3)ccc21` came in with an RP-LC retention time of 652 s.

`O=C(CCCc1ccccc1)N1CC(n2ccnc2)C1`: the RP-LC retention time was 606 s.

Compound `CCc1noc(NC(C)=O)c1-c1ccc(C)c(S(=O)(=O)Nc2ccc(C)cc2C)c1` returned an RP-LC retention time of 897 s.

In the case of `O=C(CN1C(=O)NC2(CCCCC2)C1=O)Nc1ccc(Br)cc1F`, the RP-LC retention time turned out to be 826 s.

`Cc1nc(CC(=O)Nc2ccc(F)c(F)c2)cs1` came in with an RP-LC retention time of 754 s.

For `O=C(CSc1nccn1Cc1ccco1)NC1CCCCC1`, the RP-LC retention time came to 589 s.

As for `CCc1ccc(C(=O)Nc2nnc(SCc3nnc(-c4ccccc4C)o3)s2)cc1`, the RP-LC retention time was determined as 1080 s.

Turning to `COc1ccccc1-c1noc(C2CCCN2C(=O)Nc2cccc(SC)c2)n1` (stereo unspecified), the RP-LC retention time worked out at 908 s.

In the case of `CS(=O)(=O)N(C1CCOCC1)C1CN(C(=O)NCc2ccccc2)C1`, the RP-LC retention time stood at 660 s.

As to `CCOC(=O)c1[nH]c(C)c(CN(CC2CCCO2)C(=O)c2ccc(OC)cc2)c1C` (stereo unspecified), the RP-LC retention time was found to be 852 s.

In the case of `CCC(=O)Nc1ccc(-n2cnc(C(=O)NC3CCCCC3)c2)nc1`, the RP-LC retention time was 731 s.

For `OCCN1CCN(CC(O)COCc2ccc(Cl)cc2)CC1` (stereo unspecified), the RP-LC retention time turned out to be 530 s.

In turn, `COc1cc(OC)c(NC(=O)CN2CCC(C(=O)N3CC(C)CC(C)C3)CC2)cc1Cl` (stereo unspecified) gave an RP-LC retention time of 730 s.

In turn, `CCc1ccc(NC(=O)C2CCCN(S(=O)(=O)c3c[nH]c(C(=O)N4CCCC4)c3)C2)cc1` (stereo unspecified) registered an RP-LC retention time of 873 s.

In the case of `COc1ccc(Cl)cc1N(C)C(=O)C(=O)Nc1ccc2nc3n(c(=O)c2c1)CCCCC3`, the RP-LC retention time stood at 822 s.

In the case of `Cc1c(Br)cc(C(=O)NC(C)C)c(C)c1C`, the RP-LC retention time stood at 838 s.

Compound `COc1ccc(NC(=O)N2CCC3(CC2)Nc2ccccc2-n2cccc23)c(OC)c1` displayed an RP-LC retention time of 1000 s.

`CCOc1ccccc1C(=O)NC1(c2nc(-c3cccnc3)no2)CCCCC1` had an RP-LC retention time of 1050 s.

Compound `O=C(Cn1cccn1)Nc1nc(-c2cccnc2)cs1` yielded an RP-LC retention time of 537 s.

Compound `Cc1ccc(F)cc1NC(=O)Cn1cnc(C)c(C)c1=O` yielded an RP-LC retention time of 660 s.

With `COCC(=O)NC/C=C/c1ccc2ncnc(Nc3ccc(Oc4ccc(C)nc4)c(C)c3)c2c1`, the RP-LC retention time was 622 s.

Compound `O=C(NC1CC1)C1CCCN(C(=O)c2ccccc2F)C1` (stereo unspecified) yielded an RP-LC retention time of 634 s.

In turn, `Cc1ccc(CSc2nnc(-c3ccccc3Cl)o2)cc1` yielded an RP-LC retention time of 1190 s.

`Cc1cc(C)cc(C(=O)N2CCC(C(=O)NCc3csc(-c4cccs4)n3)CC2)c1`: the RP-LC retention time worked out at 860 s.

On to `CCN(CC)CCNC(=O)C1CCCN(c2ncc(-c3cccc(F)c3)cn2)C1` (stereo unspecified), for which the RP-LC retention time is 688 s.

For the compound `O=C(Nc1ccc2c(c1)CCC2)C1CCN(C(=O)c2ncn3c2COC(c2ccc(F)cc2)C3)CC1` (stereo unspecified), the RP-LC retention time is 872 s.

Compound `COc1ccc(CC(=O)Nc2ccc(-c3nc(C)no3)cc2)cc1OC` yielded an RP-LC retention time of 735 s.

`CCOC(=O)c1ccccc1NC(=O)CSc1ccc(-c2ccco2)nn1` gave an RP-LC retention time of 524 s.

Compound `O=C(CN1CCCc2nc(C3CC3)ncc2C1=O)NC1CC1` yielded an RP-LC retention time of 604 s.

For the compound `COC(=O)C(C)NC(=O)NC1CCN(C2=NS(=O)(=O)C(c3ccccc3)=C2C)CC1` (stereo unspecified), the RP-LC retention time was found to be 718 s.

Compound `COCC1CN(S(=O)(=O)c2cccc(C#N)c2)CC12CCNCC2` (stereo unspecified) had an RP-LC retention time of 609 s.

`O=c1c(NCc2ccccc2Cl)nccn1-c1ccc2c(c1)OCO2`: the RP-LC retention time stood at 932 s.

Take `CC(NC(=O)C1CCN(C(=O)c2ncn3c2COC(c2ccc(Cl)cc2)C3)CC1)c1ccccc1` (stereo unspecified): the RP-LC retention time worked out at 854 s.

`CCc1nnc2c(=O)n(CC(=O)N3CCN(c4ccccn4)CC3)c3cccnc3n12` came in with an RP-LC retention time of 560 s.

`O=S(=O)(NCCc1c[nH]c2ncccc12)c1ccc(Br)s1` displayed an RP-LC retention time of 673 s.

`COc1cccc(S(=O)(=O)N2[C@H]3CC[C@@H]2c2cnc(C)nc2C3)c1` showed an RP-LC retention time of 692 s.

Turning to `Cc1ccc(CSc2nnc3c(S(=O)(=O)N4CCN(c5ccc(F)cc5)CC4)cccn23)cc1`, the RP-LC retention time was determined as 998 s.

In the case of `CCC(=O)NCc1nc2c(n1C)CN(S(=O)(=O)c1cc(F)ccc1F)CC2`, the RP-LC retention time came out at 557 s.

On to `CC(=O)NCc1csc(C2CCN(C(=O)c3cc(F)ccc3F)CC2)n1`, for which the RP-LC retention time stood at 652 s.

The compound `COc1cc2c(cc1OC)C(=O)C(CC1CCN(Cc3ccccc3)CC1)C2` (stereo unspecified) yielded an RP-LC retention time of 690 s.

With `CC(=O)c1ccc(S(=O)(=O)N2CCC[C@@H]2C(=O)NCc2csc(C)n2)cc1`, the RP-LC retention time amounted to 677 s.

Compound `O=C1CCCCC(CNC(=O)c2cnccn2)N1` (stereo unspecified) had an RP-LC retention time of 577 s.

In turn, `O=C(NCc1ccccc1)c1cc2sccc2n1Cc1ccc(F)cc1` had an RP-LC retention time of 1080 s.

With `CCNc1cc(N2CCCC(CCC(=O)N3CCN(C(=O)c4ccco4)CC3)C2)ncn1` (stereo unspecified), the RP-LC retention time came to 610 s.

In turn, `COC(=O)N[C@@H](C)CNc1nccc(-c2cn(C(C)C)nc2-c2cc(Cl)cc(NS(C)(=O)=O)c2F)n1` registered an RP-LC retention time of 792 s.

Consider `COc1ccccc1CC(=O)N1CCCC1c1cc(C)on1` (stereo unspecified), for which the RP-LC retention time was determined as 761 s.

As to `CC(C)c1ccc(CNC(=O)[C@@]23CCCC[C@H]2N(C)C(=O)CC3)cc1`, the RP-LC retention time was 786 s.

As for `Cc1ccc(CNC(=O)N2CCN(c3cnn4c(C)nnc4c3)CC2)cc1`, the RP-LC retention time was found to be 568 s.

`COC(=O)c1c(C)[nH]c(C(=O)N2CCCC(C(=O)NC3CCCCCC3)C2)c1C` (stereo unspecified) gave an RP-LC retention time of 794 s.

Turning to `Cc1ncn(CC(=O)Nc2ccc(F)cc2)c(=O)c1C`, the RP-LC retention time was determined as 638 s.

For `Cc1ccc(-c2nc(Nc3ccccc3F)sc2C)cc1`, the RP-LC retention time was determined as 1340 s.

On to `Cc1cc(C)c(S(=O)(=O)Nc2cc(-c3cn4ccccc4n3)ccc2C)cc1C`, for which the RP-LC retention time came to 737 s.

As to `Fc1ccc(-c2nc(-c3cccc(-c4ccn[nH]4)c3)no2)c(F)c1`, the RP-LC retention time is 992 s.

`NS(=O)(=O)c1ccc(NC(=O)c2cnc3ccccn3c2=O)cc1` yielded an RP-LC retention time of 610 s.

`CCc1nc2c(c(=O)n1CC(=O)NCCCc1ccccc1)CN(Cc1ccccc1)CC2`: the RP-LC retention time was found to be 1050 s.

In the case of `CCOC(=O)C1=C(CN(C)Cc2ccccc2)NC(=O)NC1c1ccc(C)cc1` (stereo unspecified), the RP-LC retention time came to 670 s.

Take `Cc1ccc(NS(=O)(=O)c2cc(-c3[nH]ncc3C(=O)N3CCCC3)oc2C)cc1Cl`: the RP-LC retention time amounted to 803 s.

As for `COc1cc2c(cc1OC)C1C(C(=O)NCCN3CCOCC3)c3ccccc3C(=O)N1CC2` (stereo unspecified), the RP-LC retention time is 590 s.

`CN(C)c1ccc(-c2nc3cnccn3c2Nc2ccc(C(=O)O)cc2)cc1` displayed an RP-LC retention time of 616 s.

Compound `CCOCCCNC(=O)C1CCCN(c2cc(=O)n(C)c(=O)n2C)C1` (stereo unspecified) gave an RP-LC retention time of 665 s.

For `CCCN1C(=O)c2cccnc2Sc2cc(C(=O)NC3CCCC3)ccc21`, the RP-LC retention time stood at 837 s.

Consider `Cc1cccc(C)c1NC(=O)C(C)n1cnc2nc3c(cc2c1=O)CCCC3` (stereo unspecified), for which the RP-LC retention time turned out to be 756 s.

In the case of `CCOC(=O)C(C)Sc1nnc(NC(=O)C2CC2)s1` (stereo unspecified), the RP-LC retention time is 708 s.

`CNC(=O)c1c(NC(=O)c2cccc(OC)c2)sc2c1CCC2` returned an RP-LC retention time of 1050 s.

`CCOC(=O)c1ccc(NC(=O)C2=C(C)C(=O)OC23CCN(C(C)C)CC3)cc1` came in with an RP-LC retention time of 657 s.

For the compound `O=C1/C(=C/c2ccsc2)CC/C1=C\c1cccs1`, the RP-LC retention time is 1280 s.

The compound `CCc1nc2c(=O)n(CC(=O)N3CCCC3)nc(C)c2s1` showed an RP-LC retention time of 620 s.

`Cc1cccc(Nc2nc(C(=O)NCCc3cccs3)nc3ccccc23)c1` had an RP-LC retention time of 863 s.

With `CCCCn1c(=O)c2ccccc2n(Cc2nc(-c3cccc(OCC)c3)no2)c1=O`, the RP-LC retention time came out at 1150 s.

Compound `CCOC(=O)c1c(S(=O)(=O)N2CCC(C(=O)Nc3ccc4c(c3)OCO4)CC2)c(C)n(C)c1C` came in with an RP-LC retention time of 807 s.

Turning to `CC(C)CNC(=O)Cn1c(C(C)C)nc2ccccc21`, the RP-LC retention time turned out to be 601 s.

Regarding `Cc1ccc(CN2CCN(CC(=O)Nc3ccc(C)cn3)C(=O)C2=O)cc1`, the RP-LC retention time was 664 s.

Turning to `COc1ccc2c(c1)-c1nc(NC(=O)c3ccc(Br)cc3)sc1CC2`, the RP-LC retention time was found to be 1250 s.

`O=C(Cn1nc2c(c1NC(=O)Cc1noc3ccccc13)CSC2)NCC1CCCO1` (stereo unspecified) yielded an RP-LC retention time of 853 s.

In turn, `O=C(c1ccc2c(c1)OCO2)N1[C@H]2CC[C@@H]1c1cnc(-c3ccccc3)nc1C2` had an RP-LC retention time of 914 s.

Regarding `CC(C)C(=O)N1CCC2(CC1)NCc1ccccc1-n1ccnc12`, the RP-LC retention time came out at 574 s.

Regarding `COc1cccc(-c2nc(C3CC(=O)N(c4ccc(Cl)cc4)C3)no2)c1` (stereo unspecified), the RP-LC retention time amounted to 1050 s.

`Cc1ccc2oc(=O)n(Cc3noc(C(=O)NCCC4=CCCCC4)n3)c2c1`: the RP-LC retention time was found to be 1090 s.
